Assay results reported in ChEMBL document CHEMBL1155503, “Synthesis of neurotensin(8-13)-phosphopeptide heterodimers via click chemistry” (Bioorg Med Chem Lett, 2010).
Where a SMILES comes first, the peptide text is derived from it.

Target: Neurotensin receptor type 1 (Homo sapiens, UniProt P30989)
Test: Displacement of [3H]neurotensin from NTR1 in human HT29 cells after 30 mins by liquid scintillation spectrometry
Format: cell-based, HT-29
Details: for Activity: HT-29

Chain of Neurotensin receptor type 1 (P30989 whole entry): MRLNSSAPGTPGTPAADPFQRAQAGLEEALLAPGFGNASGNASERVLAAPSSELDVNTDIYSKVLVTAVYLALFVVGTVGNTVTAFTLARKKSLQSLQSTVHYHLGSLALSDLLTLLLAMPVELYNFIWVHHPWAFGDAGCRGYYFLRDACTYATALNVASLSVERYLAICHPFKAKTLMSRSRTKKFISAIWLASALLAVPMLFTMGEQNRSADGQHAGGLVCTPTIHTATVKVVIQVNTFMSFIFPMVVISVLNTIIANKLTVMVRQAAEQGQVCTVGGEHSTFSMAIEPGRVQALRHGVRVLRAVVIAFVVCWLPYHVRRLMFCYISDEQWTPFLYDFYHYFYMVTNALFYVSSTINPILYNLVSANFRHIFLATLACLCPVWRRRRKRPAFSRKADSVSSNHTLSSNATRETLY

SMILES | IC50 | Activity
CSCC[C@H](NC(=O)CCCCn1cc(CCCC(=O)N[C@@H](CCCNC(=N)N)C(=O)N[C@@H](CCCNC(=N)N)C(=O)N2CCC[C@H]2C(=O)N[C@@H](Cc2ccc(O)cc2)C(=O)N[C@@H](CC(C)C)C(=O)N[C@@H](CC(C)C)C(=O)O)nn1)C(=O)N[C@@H](CCC(N)=O)C(=O)N[C@@H](CO)C(=O)N[C@H](C(=O)N1CCC[C@H]1C(=O)N[C@@H](CC(C)C)C(=O)O)[C@@H](C)OP(=O)(O)O | 8.3 µM | Dose-dependent effect
CSCC[C@H](NC(=O)CCCCn1cc(CCCC(=O)N[C@@H](CCCNC(=N)N)C(=O)N[C@@H](CCCNC(=N)N)C(=O)N2CCC[C@H]2C(=O)N[C@@H](Cc2ccc(O)cc2)C(=O)N[C@@H](CC(C)C)C(=O)N[C@@H](CC(C)C)C(=O)O)nn1)C(=O)N[C@@H](CCC(N)=O)C(=O)N[C@@H](CO)C(=O)N[C@H](C(=O)N1CCC[C@H]1C(=O)N[C@@H](CC(C)C)C(=O)O)[C@@H](C)O | – | Dose-dependent effect
CSCC[C@H](NC(=O)CCCCn1cc(CCCC(=O)N[C@@H](CCCN=C(N)N)C(=O)N[C@@H](CCCN=C(N)N)C(=O)N2CCC[C@H]2C(=O)N[C@@H](Cc2ccc(O)cc2)C(=O)N[C@@H](CC(C)C)C(=O)N[C@@H](CC(C)C)C(=O)O)nn1)C(=O)N[C@@H](CCC(N)=O)C(=O)N[C@@H](CO)C(=O)N[C@H](C(=O)N1CCC[C@H]1C(=O)N[C@@H](CC(C)C)C(=O)O)[C@@H](C)O | 0.7 µM | –
CC(C)C[C@H](NC(=O)[C@H](CC(C)C)NC(=O)[C@H](Cc1ccc(O)cc1)NC(=O)[C@@H]1CCCN1C(=O)[C@H](CCCNC(=N)N)NC(=O)[C@@H](N)CCCNC(=N)N)C(=O)O (H-RRPYLL-OH) | 0.001 µM | –
